Source: article PMC8805037, “Ready access to 7,8-dihydroindolo[2,3-d][1]benzazepine-6(5H)-one scaffold and analogues via early-stage Fischer ring-closure reaction” (Beilstein Journal of Organic Chemistry, 2022)

Target: proto-oncogene tyrosine-protein kinase Src (Homo sapiens, UniProt P12931)
Experiment: IC50 reported as preliminary result; assay not described in the text shown
Type: biochemical

Chain of proto-oncogene tyrosine-protein kinase Src (P12931 2-536): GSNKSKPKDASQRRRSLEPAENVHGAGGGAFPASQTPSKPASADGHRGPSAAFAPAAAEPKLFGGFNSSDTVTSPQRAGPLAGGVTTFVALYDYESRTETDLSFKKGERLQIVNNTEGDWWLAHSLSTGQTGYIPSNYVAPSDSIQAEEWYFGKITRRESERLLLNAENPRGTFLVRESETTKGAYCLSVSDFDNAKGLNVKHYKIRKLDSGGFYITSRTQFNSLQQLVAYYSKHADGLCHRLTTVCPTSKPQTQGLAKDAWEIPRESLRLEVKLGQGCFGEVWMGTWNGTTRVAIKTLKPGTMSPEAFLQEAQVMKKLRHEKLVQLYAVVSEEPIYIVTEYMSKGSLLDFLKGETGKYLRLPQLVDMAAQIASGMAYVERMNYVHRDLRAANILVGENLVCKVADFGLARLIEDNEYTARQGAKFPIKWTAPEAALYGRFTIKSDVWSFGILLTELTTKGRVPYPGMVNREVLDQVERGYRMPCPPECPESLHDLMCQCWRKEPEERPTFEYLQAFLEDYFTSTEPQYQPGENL

IC50: 260 nM
SMILES: O=C1Cc2[nH]c3ccccc3c2-c2ccccc2N1 [C, 7,8-dihydroindolo[2,3-d][1]benzazepin-6(5H)-one]
